We go through twelve molecules from ChEMBL document CHEMBL4613209, “Quinolone hybrids and their anti-cancer activities: An overview” (Eur J Med Chem, 2019).

One test relates to SK-MEL3. As to the kind of experiment: Cytotoxicity against human SK-MEL-3 cells assessed as reduction in cell viability after 72 hrs by MTT assay. It is filed as functional, cell-based. The conditions noted are these: SK-MEL3, 72 h. In general terms: Tetrazolium dyes change colour on reduction, which living cells bring about.
Another test concerns A 172. As to the kind of experiment: Cytotoxicity against human A172 cells assessed as reduction in cell viability after 72 hrs by MTT assay. Type of test: functional, cell-based. Conditions: A 172, 72 h.
The next test relates to ACHN. As to the kind of experiment: Cytotoxicity against human ACHN cells assessed as reduction in cell viability after 72 hrs by MTT assay. Type of test: functional, cell-based.
For test [1], the system named is A549. Briefly: Cytotoxicity against human A549 cells assessed as reduction in cell viability after 72 hrs by MTT assay. It is filed as functional, cell-based. The conditions noted are these: A549, 72 h.
The test system of a further test is KB. Briefly: Cytotoxicity against human KB cells assessed as reduction in cell viability after 72 hrs by MTT assay. Type of test: functional, cell-based.
The test system of a further test is A2780. As to the kind of experiment: Cytotoxicity against human A2780 cells assessed as reduction in cell viability after 72 hrs by MTT assay. Type of test: functional, cell-based. The conditions noted are these: A2780, 72 h.
The test system of test [2] is MCF7. Briefly: Cytotoxicity against human MCF7 cells assessed as reduction in cell viability after 72 hrs by MTT assay. Type of test: functional, cell-based. Conditions: MCF7, 72 h.
Test [3] has as its system P388. Briefly: Anticancer activity against doxorubicin resistant mouse P388 cells. Type of test: functional, cell-based.
Test [4] has as its system A549. As to the kind of experiment: Cytotoxicity against human A549 cells assessed as reduction in cell viability. It is filed as functional, cell-based.
Test [5] relates to P388. As to the kind of experiment: Anticancer activity against mouse P388 cells. It is filed as functional, cell-based.
Test [6] concerns Lewis lung carcinoma cell line. As to the kind of experiment: Anticancer activity against mouse LLC cells. Type of test: functional, cell-based.
In test [7] the test system is HT-29. As to the kind of experiment: Anticancer activity against human HT-29 cells. It is filed as functional, cell-based.
In test [8] the test system is P388. Briefly: Cytotoxicity against doxorubicin resistant mouse P388 cells assessed as reduction in cell viability. Type of test: functional, cell-based.
Test [9] concerns HT-29. Briefly: Cytotoxicity against human HT-29 cells assessed as reduction in cell viability. Type of test: functional, cell-based.
A further test relates to HCT-8. Briefly: Anticancer activity against human HCT8 cells. It is filed as functional, cell-based.
Test [10] relates to B16-F10. Briefly: Cytotoxicity against mouse B16F10 cells assessed as reduction in cell viability. It is filed as functional, cell-based.
The subject of test [11] is P388. Briefly: Cytotoxicity against mouse P388 cells assessed as reduction in cell viability. Type of test: functional, cell-based.
Test [12] relates to A549. Briefly: Anticancer activity against human A549 cells. Type of test: functional, cell-based.
Test [13] relates to B16-F10. As to the kind of experiment: Anticancer activity against mouse B16F10 cells. It is filed as functional, cell-based.
For test [14], the system named is MCF7. As to the kind of experiment: Anticancer activity against human MCF7 cells. Type of test: functional, cell-based.
Another test concerns NCI-H460. Briefly: Growth inhibition of human NCI-H460 cells. Type of test: functional. Conditions: pooled result: one value given for 3 cell lines, strains, targets or settings.
The subject of another test is MDA-MB-231. As to the kind of experiment: Cytotoxicity against human MDA-MB-231 cells assessed as reduction in cell viability after 48 hrs by MTT assay. It is filed as functional, cell-based. The conditions noted are these: MDA-MB-231, 48 h.
Test [15] relates to MCF7. Briefly: Cytotoxicity against human MCF7 cells assessed as reduction in cell viability after 48 hrs by MTT assay. Type of test: functional, cell-based. The conditions noted are these: MCF7, 48 h.
Another test concerns T47D. Briefly: Cytotoxicity against human T47D cells assessed as reduction in cell viability after 48 hrs by MTT assay. Type of test: functional, cell-based.

≈ marks a conversion by molar mass, not a printed value. Bounds are passed on as bounds.

The term IC50 denotes the point on the concentration scale where inhibition reaches its midpoint. As a reminder, the GI50 is the concentration at which growth is held to half of that of the control. A higher GI50 goes with less potent growth inhibition.

Turning to `O=C(O)c1cn(C2CC2)c2cc(N3CCN(C/C(=N/O)c4ccco4)CC3)c(F)cc2c1=O`, the IC50 in the test with SK-MEL3, with A 172, in the test on ACHN, in the test on A549 [1], in the test with KB and in the test with A2780 was > 100 µM throughout. The IC50 with MCF7 [2] was > 100 µM.

Consider `CO/N=C(/CN1CCN(c2cc3c(cc2F)c(=O)c(C(=O)O)cn3C2CC2)CC1)c1ccco1`, for which the IC50 with SK-MEL3, with A 172, in the test with ACHN, with A549 [1], with KB and in the test with A2780 was > 100 µM throughout. Also, in the test with MCF7 [2], the IC50 is > 100 µM.

In the case of `O=C(O)c1cn(C2CC2)c2cc(N3CCN(C/C(=N/OCc4ccc(Cl)cc4)c4cccs4)CC3)c(F)cc2c1=O`, the IC50 in the test with SK-MEL3, in the test with A 172, in the test with ACHN, in the test on A549 [1], in the test with KB and with A2780 was ≤ 10 µM throughout. For the same molecule, in the test on MCF7 [2], the IC50 is ≤ 10 µM.

In the case of `Cc1cccc(C)c1NC1CCN(C2C(F)=Cc3c4n(cc(C(=O)O)c3=O)-c3ccccc3OC42)C1` (configuration not stated), the IC50 in the test on P388 [3] fell in the range of 0.03 to 0.49 µM; in the test on A549 [4], 0.011 to 0.59 µg/mL (≈ 0.0226 to 1.21 µM); with P388 [5], 0.03 to 0.49 µM; in test [6] it was 0.03 to 0.49 µM; in the test with HT-29 [7], 0.03 to 0.49 µM; with P388 [8] it was 0.011 to 0.59 µg/mL (≈ 0.0226 to 1.21 µM). For the same molecule, the IC50 with HT-29 [9] lay in the range of 0.011 to 0.59 µg/mL (≈ 0.0226 to 1.21 µM); in the test with HCT-8, 0.03 to 0.49 µM; in the test on B16-F10 [10], 0.011 to 0.59 µg/mL (≈ 0.0226 to 1.21 µM); in the test on P388 [11], 0.011 to 0.59 µg/mL (≈ 0.0226 to 1.21 µM); in the test with A549 [12] it was 0.03 to 0.49 µM; with B16-F10 [13] it was 0.03 to 0.49 µM. In the test on MCF7 [14], this molecule returned an IC50 of 0.03 to 0.49 µM.

Turning to `CCn1cc(C(=O)O)c(=O)c2cc(F)c(N3CCN(C/C(=N/OC)c4ccco4)CC3)cc21`, the IC50 in the test with SK-MEL3, in the test with A 172, with ACHN, with A549 [1], with KB and in the test with A2780 was > 100 µM each time. Further, the IC50 in the test with MCF7 [2] is > 100 µM.

For `N=c1c(-c2nn3c(-c4cn(C5CC5)c5cc(N6CCNCC6)c(F)cc5c4=O)nnc3s2)cn(C2CC2)c2cc(N3CCNCC3)c(F)cc12`, the IC50 with SK-MEL3, in the test on A 172, in the test on ACHN, with A549 [1], in the test on KB and with A2780 was ≤ 10 µM throughout. In the test on MCF7 [2], the IC50 was ≤ 10 µM.

In the test with NCI-H460, `O=c1[nH]c2ccc(F)cc2c2oc3ccccc3c12` came in with a GI50 of 10.7 to 53.7 µM.

On to `O=C(O)c1cn(C2CC2)c2cc(N3CCN(C/C(=N/OCc4ccc(Cl)cc4)c4ccco4)CC3)c(F)cc2c1=O`, for which the IC50 with SK-MEL3, in the test with A 172, in the test with ACHN, in the test on A549 [1], with KB and in the test on A2780 was ≤ 10 µM in each case. Moreover, the IC50 with MCF7 [2] was ≤ 10 µM.

As to `COc1ccc2c(c1)c(=O)c1ccccc1n2Cc1cn(Cc2cc(OC)c(OC)c(OC)c2)nn1`, the IC50 in the test on MDA-MB-231, with MCF7 [15] and in the test on T47D was > 100 µM in each case.

Consider `NC1CCN(C2C(F)=Cc3c4n(cc(C(=O)O)c3=O)-c3ccccc3OC42)C1` (configuration not stated), for which the IC50 in the test on P388 [3] was in the range of 0.03 to 0.49 µM; in the test on A549 [4] it was 0.011 to 0.59 µg/mL (≈ 0.0287 to 1.54 µM); in the test with P388 [5], 0.03 to 0.49 µM; in test [6] it was 0.03 to 0.49 µM; with HT-29 [7], 0.03 to 0.49 µM; in the test with P388 [8], 0.011 to 0.59 µg/mL (≈ 0.0287 to 1.54 µM). The IC50 with HT-29 [9] lay in the range of 0.011 to 0.59 µg/mL (≈ 0.0287 to 1.54 µM); in the test on HCT-8 it was 0.03 to 0.49 µM; in the test with B16-F10 [10], 0.011 to 0.59 µg/mL (≈ 0.0287 to 1.54 µM); in the test on P388 [11], 0.011 to 0.59 µg/mL (≈ 0.0287 to 1.54 µM); in the test with A549 [12] it was 0.03 to 0.49 µM; with B16-F10 [13], 0.03 to 0.49 µM. This molecule also had a half-maximal inhibitory concentration (IC50) in the test on MCF7 [14] of 0.03 to 0.49 µM.

Turning to `COc1cc(Cn2cc(Cn3c4ccccc4c(=O)c4cccc(OC)c43)nn2)cc(OC)c1OC`, the IC50 in the test with MDA-MB-231, in the test with MCF7 [15] and in the test with T47D was > 100 µM throughout.

Turning to `CCn1cc(C(=O)O)c(=O)c2cc(F)c(N3CCN(C/C(=N/OCc4ccccc4)c4ccco4)CC3)cc21`, the half-maximal inhibitory concentration (IC50) in the test with SK-MEL3, with A 172, with ACHN, with A549 [1], in the test on KB and in the test on A2780 was ≤ 10 µM throughout. The IC50 in the test on MCF7 [2] is ≤ 10 µM.
